The subject of test [1] is MCF7. Briefly: Antiproliferative activity against human MCF7 cells assessed as cell growth inhibition incubated for 42 hrs by MTT assay. The test is classed as functional, cell-based. As to conditions: MCF7, 42 h.
The target of test [2] is T1, Vascular endothelial growth factor receptor 2 (Homo sapiens, UniProt P35968). Kind of test: Inhibition of VEGFR-2 (unknown origin) using FAM-labeled peptide as substrate incubated for 10 mins in presence of ATP by caliper mobility shift assay.
Test [3] concerns HCT-116. Briefly: Antiproliferative activity against human HCT-116 cells assessed as cell growth inhibition incubated for 42 hrs by MTT assay. The conditions noted are these: HCT-116, 42 h. Format: functional, cell-based.
A further test concerns B16. Briefly: Antiproliferative activity against mouse B16 cells assessed as cell growth inhibition incubated for 42 hrs by MTT assay. The test is classed as functional, cell-based. As to conditions: B16, 42 h.
In test [4] the target is T2, Epidermal growth factor receptor (Homo sapiens, UniProt P00533). Briefly: Inhibition of EGFR (unknown origin) using FAM-labeled peptide as substrate incubated for 10 mins in presence of ATP by caliper mobility shift assay.
Test [5] concerns the target T3, Epidermal growth factor receptor (Homo sapiens, UniProt P00533, T790M). Briefly: Inhibition of EGFR T790M mutant (unknown origin) incubated for 1 hr by Z-lyte kinase assay.
The target of test [6] is Hepatocyte growth factor receptor (Homo sapiens, UniProt P08581). Kind of test: Inhibition of c-MET (unknown origin) incubated for 1 hr by Z-lyte kinase assay.
In test [7] the test system is NCI-H1975. Kind of test: Antiproliferative activity against human NCI-H1975 cells assessed as cell growth inhibition incubated for 72 hrs by MTS assay. The test is classed as functional, cell-based. The conditions noted are these: NCI-H1975, 72 h.
Test [8] concerns the target Fibroblast growth factor receptor 1 (Homo sapiens, UniProt P11362). Briefly: Inhibition of N-terminal GST-tagged recombinant wild type human FGFR1 (398 to 822 residues) expressed in baculovirus infected Sf21 cells incubated for 1 hr in presence of ATP by caliper mobility shift assay.
In the next test the test system is MDA-MB-468. Kind of test: Antiproliferative activity against human MDA-MB-468 cells assessed as cell growth inhibition measured after 72 hrs by MTT assay. Format: functional, cell-based. The conditions noted are these: MDA-MB-468, 72 h.
For a further test, the system named is HeLa. Briefly: Antiproliferative activity against human HeLa cells assessed as cell growth inhibition measured after 72 hrs by MTT assay. The test is classed as functional, cell-based.
The target in a further test is Histone deacetylase. Briefly: Inhibition of HDAC in human HeLa cell nuclear extract using Boc-Lys (acetyl)-AMC as substrate preincubated for 5 mins followed by substrate addition measured after 30 mins by microplate reader analysis. Format: cell-free.
In another test the test system is A549. Kind of test: Antiproliferative activity against human A549 cells assessed as cell growth inhibition measured after 72 hrs by MTT assay. The test is classed as functional, cell-based. As to conditions: A549, 72 h.
For the next test, the system named is MDA-MB-231. Kind of test: Antiproliferative activity against human MDA-MB-231 cells assessed as cell growth inhibition measured after 72 hrs by MTT assay. Format: functional, cell-based. As to conditions: MDA-MB-231, 72 h.
The subject of the next test is KG-1. Kind of test: Antiproliferative activity against human KG-1 cells assessed as cell growth inhibition measured after 72 hrs by MTT assay. Format: functional, cell-based. As to conditions: KG-1, 72 h.
The subject of test [9] is HCT-116. Briefly: Antiproliferative activity against human HCT-116 assessed as cell growth inhibition measured after 72 hrs by MTT assay. The conditions noted are these: HCT-116, 72 h. The test is classed as functional, cell-based.
The target in the next test is Tubulin. Briefly: Inhibition of tubulin polymerization in human HCT-116 cells incubated for 18 to 24 hrs by horseradish peroxidase based ELISA method. The test is classed as cell-based.
The test system of test [10] is MCF7. Kind of test: Antiproliferative activity against human MCF7 assessed as cell growth inhibition measured after 72 hrs by MTT assay. Format: functional, cell-based. As to conditions: MCF7, 72 h.
In test [11] the target is T2, Epidermal growth factor receptor. Briefly: Inhibition of EGFR (unknown origin).
For another test, the system named is A-431. Briefly: Antiproliferative activity against human A-431 cells assessed as cell growth inhibition. The test is classed as functional, cell-based.
A further test deals with SK-BR-3. Kind of test: Antiproliferative activity against human SK-BR-3 cells assessed as cell growth inhibition. The test is classed as functional, cell-based.
Test [12] addresses Insulin-like growth factor 1 receptor (Homo sapiens, UniProt P08069). Briefly: Inhibition of IGF1R (unknown origin).
Test [13] concerns the target T2, Epidermal growth factor receptor. Kind of test: Inhibition of human EGFR expressed in baculovirus expression system using CAGAGAIETDKEYYTVKD as substrate preincubated for 10 mins followed by substrate and ATP addition measured after 1 hr by TR-FRET assay.
In test [14] the target is T3, Epidermal growth factor receptor. Kind of test: Inhibition of human EGFR T790M mutant expressed in baculovirus expression system using CAGAGAIETDKEYYTVKD as substrate preincubated for 10 mins followed by substrate and ATP addition measured after 1 hr by TR-FRET assay.
Test [15] has as its target Platelet-derived growth factor receptor beta (Homo sapiens, UniProt P09619). Kind of test: Binding affinity to GST-tagged human recombinant PDFGR beta expressed in baculovirus infected Sf9 insect cells assessed as inhibition constant using poly(Ala,Glu,Lys,Tyr) 6:2:5.1 as substrate incubated for 60 mins in presence of [gamma33P]ATP by microplate scintillation counter analysis.

The target of test [16] is T2, Epidermal growth factor receptor. Briefly: Binding affinity to GST-tagged human recombinant EGFR expressed in baculovirus infected Sf9 insect cells assessed as inhibition constant using poly(Glu,Tyr) 4:1 as substrate incubated for 60 mins in presence of [gamma33P]ATP by microplate scintillation counter analysis.
For test [17] the target is unchanged. Kind of test: Inhibition of EGFR (unknown origin) by ADP-Glo kinase assay.
Test [18] has as its target Tyrosine-protein kinase CSK (Homo sapiens, UniProt P41240). Briefly: Inhibition of CSK (unknown origin) by ADP-Glo kinase assay.
For test [19], the target named is T3, Epidermal growth factor receptor. Briefly: Inhibition of EGFR T790M mutant (unknown origin).
Test [20] relates to NCI-H1975. Briefly: Antiproliferative activity against human NCI-H1975 cells assessed as cell growth inhibition. Format: functional, cell-based.
Test [21] concerns the target T1, Vascular endothelial growth factor receptor 2. Briefly: Inhibition of VEGFR2 (unknown origin).
For test [22], the target named is Epidermal growth factor receptor (Homo sapiens, UniProt P00533, L858R/T790M). Briefly: Inhibition of EGFR L858R/T790M mutant (unknown origin).
Test [23] addresses T2, Epidermal growth factor receptor. Kind of test: Inhibition of EGFR (unknown origin) incubated for 30 mins in presence of ATP by fluorescence based analysis.

The record followed here is ChEMBL document CHEMBL5126509, “Dual target inhibitors based on EGFR: Promising anticancer agents for the treatment of cancers (2017-)” (Eur J Med Chem, 2022).

Sequence of Hepatocyte growth factor receptor (P08581 whole entry): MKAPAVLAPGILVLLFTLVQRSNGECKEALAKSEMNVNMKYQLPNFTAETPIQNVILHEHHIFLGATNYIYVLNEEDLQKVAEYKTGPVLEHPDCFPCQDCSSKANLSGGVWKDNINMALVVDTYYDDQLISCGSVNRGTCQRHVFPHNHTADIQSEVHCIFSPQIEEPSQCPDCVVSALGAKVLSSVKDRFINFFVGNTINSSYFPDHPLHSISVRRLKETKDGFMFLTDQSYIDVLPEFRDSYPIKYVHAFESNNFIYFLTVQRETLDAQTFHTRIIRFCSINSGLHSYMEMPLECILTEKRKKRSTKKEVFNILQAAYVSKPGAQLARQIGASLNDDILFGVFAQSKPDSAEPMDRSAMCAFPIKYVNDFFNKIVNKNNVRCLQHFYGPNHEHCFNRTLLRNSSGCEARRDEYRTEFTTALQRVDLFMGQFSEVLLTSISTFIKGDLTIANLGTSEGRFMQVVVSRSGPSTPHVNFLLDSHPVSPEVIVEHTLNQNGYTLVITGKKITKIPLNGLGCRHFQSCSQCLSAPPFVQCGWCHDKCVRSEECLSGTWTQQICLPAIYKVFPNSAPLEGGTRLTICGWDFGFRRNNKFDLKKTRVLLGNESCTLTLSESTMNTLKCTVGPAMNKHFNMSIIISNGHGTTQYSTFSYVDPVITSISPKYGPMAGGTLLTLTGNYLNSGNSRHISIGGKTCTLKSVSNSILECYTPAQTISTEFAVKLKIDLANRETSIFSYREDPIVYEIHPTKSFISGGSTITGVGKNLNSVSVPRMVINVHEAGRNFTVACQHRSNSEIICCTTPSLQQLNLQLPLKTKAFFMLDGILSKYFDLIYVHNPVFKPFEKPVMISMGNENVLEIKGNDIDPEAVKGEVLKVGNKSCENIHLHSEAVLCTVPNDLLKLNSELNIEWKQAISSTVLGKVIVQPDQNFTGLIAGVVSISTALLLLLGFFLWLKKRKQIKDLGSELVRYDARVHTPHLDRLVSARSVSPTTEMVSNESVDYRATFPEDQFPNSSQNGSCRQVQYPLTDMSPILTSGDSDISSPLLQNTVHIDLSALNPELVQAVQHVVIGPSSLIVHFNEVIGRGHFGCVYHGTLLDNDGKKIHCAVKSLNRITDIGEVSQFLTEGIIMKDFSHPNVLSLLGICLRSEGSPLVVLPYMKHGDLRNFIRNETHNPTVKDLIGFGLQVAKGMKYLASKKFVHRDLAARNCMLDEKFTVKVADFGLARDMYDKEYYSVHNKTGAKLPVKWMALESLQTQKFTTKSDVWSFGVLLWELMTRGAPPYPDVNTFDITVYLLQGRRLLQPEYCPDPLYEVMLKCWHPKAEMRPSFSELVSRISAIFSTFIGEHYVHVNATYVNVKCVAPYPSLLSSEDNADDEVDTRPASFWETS
T1 sequence (P35968 whole entry): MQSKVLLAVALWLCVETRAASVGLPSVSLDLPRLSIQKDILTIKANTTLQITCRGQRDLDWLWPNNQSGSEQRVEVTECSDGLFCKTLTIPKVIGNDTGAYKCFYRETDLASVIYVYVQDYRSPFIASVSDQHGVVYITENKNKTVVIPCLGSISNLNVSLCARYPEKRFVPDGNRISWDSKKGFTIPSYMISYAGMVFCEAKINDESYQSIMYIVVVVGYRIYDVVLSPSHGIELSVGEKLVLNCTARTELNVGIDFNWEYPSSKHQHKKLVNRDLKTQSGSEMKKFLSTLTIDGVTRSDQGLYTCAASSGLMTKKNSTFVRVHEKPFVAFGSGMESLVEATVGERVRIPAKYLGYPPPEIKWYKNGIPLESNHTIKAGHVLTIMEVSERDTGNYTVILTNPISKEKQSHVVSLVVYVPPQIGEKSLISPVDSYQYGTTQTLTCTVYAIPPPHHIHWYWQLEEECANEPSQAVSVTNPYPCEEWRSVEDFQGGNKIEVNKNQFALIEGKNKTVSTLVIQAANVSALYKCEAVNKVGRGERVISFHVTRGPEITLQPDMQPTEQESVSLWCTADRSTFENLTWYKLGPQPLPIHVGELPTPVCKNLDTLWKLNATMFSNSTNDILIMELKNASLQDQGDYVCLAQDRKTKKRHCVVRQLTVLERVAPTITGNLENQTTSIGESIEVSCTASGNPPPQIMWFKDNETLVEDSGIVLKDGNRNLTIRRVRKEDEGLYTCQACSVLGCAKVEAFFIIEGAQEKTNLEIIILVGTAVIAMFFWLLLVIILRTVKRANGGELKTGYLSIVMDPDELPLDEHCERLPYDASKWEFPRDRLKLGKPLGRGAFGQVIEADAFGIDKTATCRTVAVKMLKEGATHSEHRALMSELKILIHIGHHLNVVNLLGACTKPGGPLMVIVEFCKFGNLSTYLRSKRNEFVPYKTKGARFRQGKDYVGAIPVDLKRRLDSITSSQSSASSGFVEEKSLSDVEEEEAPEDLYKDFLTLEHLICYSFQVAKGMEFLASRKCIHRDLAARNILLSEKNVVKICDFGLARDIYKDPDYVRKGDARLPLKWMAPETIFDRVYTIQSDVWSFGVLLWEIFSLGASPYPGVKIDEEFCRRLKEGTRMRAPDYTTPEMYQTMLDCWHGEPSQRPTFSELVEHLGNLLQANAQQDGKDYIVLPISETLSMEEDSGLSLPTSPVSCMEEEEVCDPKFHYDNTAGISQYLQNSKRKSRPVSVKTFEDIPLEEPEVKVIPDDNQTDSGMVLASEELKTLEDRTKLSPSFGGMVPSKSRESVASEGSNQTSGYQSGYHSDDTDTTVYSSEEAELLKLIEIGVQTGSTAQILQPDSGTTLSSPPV
T2 sequence (P00533 whole entry): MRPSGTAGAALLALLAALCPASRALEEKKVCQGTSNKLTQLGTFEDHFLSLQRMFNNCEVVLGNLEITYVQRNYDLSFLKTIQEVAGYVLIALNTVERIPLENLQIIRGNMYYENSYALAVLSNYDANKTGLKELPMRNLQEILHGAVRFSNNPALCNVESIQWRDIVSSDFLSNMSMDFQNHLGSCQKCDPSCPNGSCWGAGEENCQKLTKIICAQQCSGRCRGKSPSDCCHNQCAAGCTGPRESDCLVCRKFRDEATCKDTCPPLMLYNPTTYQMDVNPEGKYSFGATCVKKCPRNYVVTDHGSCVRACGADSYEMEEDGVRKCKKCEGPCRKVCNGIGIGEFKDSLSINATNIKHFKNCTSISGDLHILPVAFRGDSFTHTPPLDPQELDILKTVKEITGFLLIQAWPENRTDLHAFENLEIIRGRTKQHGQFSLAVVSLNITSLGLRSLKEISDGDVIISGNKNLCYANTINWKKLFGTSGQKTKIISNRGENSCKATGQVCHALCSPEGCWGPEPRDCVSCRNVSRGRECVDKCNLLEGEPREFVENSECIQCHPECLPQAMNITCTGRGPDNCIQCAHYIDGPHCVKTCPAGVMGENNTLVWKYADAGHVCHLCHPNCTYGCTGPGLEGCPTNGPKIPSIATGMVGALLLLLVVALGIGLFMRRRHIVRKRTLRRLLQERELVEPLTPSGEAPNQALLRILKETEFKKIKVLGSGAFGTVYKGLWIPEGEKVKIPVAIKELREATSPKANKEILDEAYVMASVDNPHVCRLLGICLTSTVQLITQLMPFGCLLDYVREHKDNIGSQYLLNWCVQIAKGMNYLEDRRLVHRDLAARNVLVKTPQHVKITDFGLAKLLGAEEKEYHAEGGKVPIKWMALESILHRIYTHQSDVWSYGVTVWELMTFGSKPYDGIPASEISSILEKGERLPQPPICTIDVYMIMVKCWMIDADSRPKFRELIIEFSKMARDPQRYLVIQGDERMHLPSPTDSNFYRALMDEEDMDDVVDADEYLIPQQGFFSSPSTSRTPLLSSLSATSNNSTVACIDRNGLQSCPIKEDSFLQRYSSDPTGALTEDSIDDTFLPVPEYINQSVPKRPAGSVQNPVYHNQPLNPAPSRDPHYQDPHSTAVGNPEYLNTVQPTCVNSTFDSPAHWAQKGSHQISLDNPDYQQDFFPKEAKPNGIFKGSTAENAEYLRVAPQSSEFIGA
T3 sequence (P00533 25-1210 T790M limits assumed): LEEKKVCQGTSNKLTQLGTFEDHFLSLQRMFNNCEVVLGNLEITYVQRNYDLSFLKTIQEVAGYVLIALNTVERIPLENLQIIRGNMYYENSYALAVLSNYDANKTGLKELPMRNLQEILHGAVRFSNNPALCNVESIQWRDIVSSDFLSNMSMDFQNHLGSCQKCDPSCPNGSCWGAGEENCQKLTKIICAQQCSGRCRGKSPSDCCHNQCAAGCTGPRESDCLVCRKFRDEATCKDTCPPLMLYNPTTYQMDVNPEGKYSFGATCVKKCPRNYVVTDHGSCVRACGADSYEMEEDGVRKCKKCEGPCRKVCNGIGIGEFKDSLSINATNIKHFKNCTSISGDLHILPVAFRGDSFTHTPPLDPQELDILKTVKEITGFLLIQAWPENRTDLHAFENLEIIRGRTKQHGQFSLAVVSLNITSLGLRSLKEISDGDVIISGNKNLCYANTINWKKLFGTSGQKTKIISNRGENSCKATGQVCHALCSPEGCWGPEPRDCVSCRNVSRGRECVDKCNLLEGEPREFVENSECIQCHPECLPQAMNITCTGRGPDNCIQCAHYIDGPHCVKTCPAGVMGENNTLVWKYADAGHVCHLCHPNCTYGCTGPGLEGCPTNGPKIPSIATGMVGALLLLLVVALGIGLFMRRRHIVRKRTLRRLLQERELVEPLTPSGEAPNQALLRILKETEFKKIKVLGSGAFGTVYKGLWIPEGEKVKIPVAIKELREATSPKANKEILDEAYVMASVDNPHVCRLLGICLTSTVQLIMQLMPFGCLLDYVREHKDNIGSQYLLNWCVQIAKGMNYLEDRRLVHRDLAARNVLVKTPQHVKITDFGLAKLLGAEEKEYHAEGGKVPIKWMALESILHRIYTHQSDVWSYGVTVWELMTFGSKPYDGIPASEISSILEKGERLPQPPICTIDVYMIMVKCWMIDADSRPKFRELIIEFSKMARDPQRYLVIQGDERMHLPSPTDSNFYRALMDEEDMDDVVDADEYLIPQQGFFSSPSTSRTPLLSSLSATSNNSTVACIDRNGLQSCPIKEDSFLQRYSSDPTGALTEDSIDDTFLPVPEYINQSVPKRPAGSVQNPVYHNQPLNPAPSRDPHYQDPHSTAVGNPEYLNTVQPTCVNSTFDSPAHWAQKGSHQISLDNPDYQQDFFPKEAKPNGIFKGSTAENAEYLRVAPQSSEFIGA

Consider `COc1cc2ncnc(Oc3cccc(NC(=S)Nc4ccc(Cl)c(C(F)(F)F)c4)c3)c2cc1OC`, for which the IC50 with MCF7 [1] was determined as 5570 nM; in [2] it was 50 nM; with HCT-116 [3], 5570 nM; in the test on B16 it was 5570 nM; in test [4], 20 nM.
On to `CCc1ccc(Cn2cc(-c3cc(-c4ccc(Br)cc4)nc(N)n3)c3ccccc32)cc1`, for which the IC50 in [5] worked out at 97 nM; in [6], 518 nM.
Regarding `CN1CCN(c2ccc(Nc3ncc(Br)c(Nc4ccc5cn[nH]c5c4)n3)cc2)CC1`, the figures for the 50% inhibitory concentration (IC50) (with NCI-H1975 [7]; in test [8]) were 336 nM and 17.6 nM, respectively.
Take `CC(C)c1ccc(Cn2cc(-c3cc(-c4ccc(Br)cc4)nc(N)n3)c3ccccc32)cc1`: the IC50 in [5] came out at 94 nM; in test [6] it was 595 nM.
On to `COc1cc(NC(=O)CCCCCCC(=O)NO)ccc1Nc1nccc(-c2cn(C)c3ccccc23)n1`, for which the IC50 turned out to be 230 nM in the test with MDA-MB-468; 1850 nM in the test with HeLa; 85 nM against Histone deacetylase; 2190 nM in the test with A549; 600 nM in the test on MDA-MB-231; 420 nM in the test with KG-1.
Take `CCc1nnc2c(Nc3ccc(C(=O)/C=C/c4cc(OC)c(OC)c(OC)c4)cc3)nc3ccccc3n12`: the IC50 in the test with HCT-116 [9] was 3610 nM; on Tubulin, 8840 nM; with MCF7 [10], 1650 nM.
As for `CCOc1cc2ncc(C#N)c(Nc3ccc(OCc4ccccc4)cc3)c2cc1NC(=O)/C=C/c1cccnc1`, the 50% inhibitory concentration (IC50) was 597 nM in test [11], 1890 nM in the test on A-431, 1930 nM in the test with SK-BR-3 and 908 nM in test [12].
For the compound `CCOc1cc2ncc(C#N)c(Nc3ccc(OCc4ccccn4)c(Cl)c3)c2cc1NC(=O)/C=C/CN(C)C` [NERATINIB], in the test on A-431, the half-inhibitory concentration (IC50) is 2150 nM.
For the compound `O=C(Cc1ccccc1)Nc1cccc(-c2nc3n(c2-c2ccnc(Nc4ccc(N5CCOCC5)cc4)n2)CCS3)c1`, the 50% inhibitory concentration (IC50) was determined as 35.5 nM in [13] and 66 nM in [14].
With `Nc1nc(-c2ccc(Br)cc2)cc(-c2cn(Cc3cccc(Cl)c3)c3ccccc23)n1`, the IC50 is 195 nM in [5] and 101 nM in test [6].
For the compound `Nc1nc(Nc2ccc(COc3cccc(F)c3)cc2)c2c(n1)[nH]c1ccc(O)cc12`, the figures for the Ki in test [15] and in [16] were 81 nM and 170 nM, respectively.
Consider `COc1ccc(CCOc2ccc(C(=O)/C=C/c3ccc(O)c(O)c3)cc2OC)cc1OC`, for which the half-inhibitory concentration (IC50) in test [17] stood at 11100 nM; in test [18], 5160 nM.
Consider `C=CC(=O)Nc1cc2c(Nc3ccc(Br)cc3F)ncnc2cc1OCCNC(=O)CN(C)C`, for which the IC50 in test [19] came out at 11 nM; in [11], 2 nM; with NCI-H1975 [20] it was 130 nM; in the test with A-431, 14 nM; in [21], 103 nM; in [22], 3 nM.
For `COc1cc2ncnc(Sc3cccc(NC(=S)Nc4ccc(Br)c(C(F)(F)F)c4)c3)c2cc1OC`, the concentration for half-maximal inhibition (IC50) with MCF7 [1] came out at 5570 nM; in test [2], 80 nM; with HCT-116 [3] it was 5570 nM; in the test on B16 it was 5570 nM; in [4], 10 nM.
For the compound `Cc1nn(-c2ccc(F)cc2)c2ncnc(Nc3ccc(F)c(Cl)c3)c12`, the IC50 in [23] came to 186 nM.
